Molecular target: human kinase Mps-1 (Homo sapiens (Human), UniProt P33981)
Experiment: Mps-1 kinase assay (TR-FRET)
Assay type: biochemical
Conditions: N-terminally GST-tagged human full length recombinant Mps-1; 10 μM ATP; 1 μM biotinylated peptide substrate; read-out: Mps1 IC50
Protocol: The human kinase Mps-1 phosphorylates a biotinylated substrate peptide. Detection of the phosphorylated product is achieved by time-resolved fluorescence resonance energy transfer (TR-FRET) from Europium-labelled anti-phospho-Serine/Threonine antibody as donor to streptavidin labelled with cross-linked allophycocyanin (SA-XLent) as acceptor. Compounds are tested for their inhibition of the kinase activity.
N-terminally GST-tagged human full length recombinant Mps-1 kinase (purchased from Invitrogen, Karslruhe, Germany, cat. no PV4071) was used. As substrate for the kinase reaction a biotinylated peptide of the amino-acid sequence […] (C-terminus in amide form, purchased from Biosynthan GmbH, Berlin) was used.
The concentration of Mps-1 in the assay was adjusted to the activity of the enzyme lot and was chosen appropriate to have the assay in the linear range, typical enzyme concentrations were in the range of about 1 nM (final conc. in the 5 μl assay volume).
The resulting mixture was incubated 1 h at 22° C. to allow the binding of the phosphorylated peptide to the anti-phospho(Ser/Thr)-Europium-antibody. Subsequently the amount of phosphorylated substrate was evaluated by measurement of the resonance energy transfer from the Europium-labelled anti-phospho(Ser/Thr) antibody to the Streptavidin-XLent.

Chain of human kinase Mps-1 (P33981 whole entry): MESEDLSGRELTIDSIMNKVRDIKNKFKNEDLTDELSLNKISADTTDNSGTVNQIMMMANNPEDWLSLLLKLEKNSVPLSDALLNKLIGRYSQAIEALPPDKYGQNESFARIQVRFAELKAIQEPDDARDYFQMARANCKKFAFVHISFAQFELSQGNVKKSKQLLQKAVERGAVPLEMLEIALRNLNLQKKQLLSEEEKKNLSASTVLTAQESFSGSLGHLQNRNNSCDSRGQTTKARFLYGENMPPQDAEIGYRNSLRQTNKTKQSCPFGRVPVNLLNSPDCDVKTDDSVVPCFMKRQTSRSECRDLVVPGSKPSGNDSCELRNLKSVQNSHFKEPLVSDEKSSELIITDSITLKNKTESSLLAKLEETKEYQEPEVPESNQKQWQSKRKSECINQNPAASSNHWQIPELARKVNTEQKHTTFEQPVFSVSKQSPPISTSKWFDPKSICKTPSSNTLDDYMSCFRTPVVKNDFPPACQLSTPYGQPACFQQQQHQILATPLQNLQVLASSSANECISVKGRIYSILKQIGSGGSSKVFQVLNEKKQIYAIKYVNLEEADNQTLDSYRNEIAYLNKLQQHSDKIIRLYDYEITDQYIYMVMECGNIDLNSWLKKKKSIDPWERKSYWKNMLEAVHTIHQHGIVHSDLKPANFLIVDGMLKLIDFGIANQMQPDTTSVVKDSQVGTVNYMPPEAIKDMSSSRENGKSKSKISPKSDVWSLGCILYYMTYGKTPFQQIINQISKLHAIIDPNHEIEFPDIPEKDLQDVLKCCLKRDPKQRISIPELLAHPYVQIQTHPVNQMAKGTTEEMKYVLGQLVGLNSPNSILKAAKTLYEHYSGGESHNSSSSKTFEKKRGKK

SMILES	IC50 [nM]
Cc1cc(-n2cnc3c(NCCC(F)(F)F)cc(Oc4ccc(O)cc4F)cc32)ccc1C(=O)NC1CC1 [Example 90, N-cyclopropyl-4-{6-(2-fluoro-4-hydroxyphenoxy)-4-[(3,3,3-trifluoropropyl)amino]-1H-benzimidazol-1-yl}-2-methylbenzamide]	1.1
COc1cccc(Nc2cc(NCCC(F)(F)F)c3ncn(-c4ccc(C(=O)NC5CC5)c(C)c4)c3c2)c1C [Example 65, N-cyclopropyl-4-{6-[(3-methoxy-2-methylphenyl)amino]-4-[(3,3,3-trifluoropropyl)amino]-1H-benzimidazol-1-yl}-2-methylbenzamide]	2.8
Cc1cc(-n2cnc3c(NCCC(F)(F)F)cc(Oc4ccc(-n5cncn5)cc4)cc32)ccc1C(=O)NC1CC1 [Example 78, N-cyclopropyl-2-methyl-4-{6-[4-(1H-1,2,4-triazol-1-yl)phenoxy]-4-[(3,3,3-trifluoropropyl)amino]-1H-benzimidazol-1-yl}benzamide]	11
Cc1cc(-n2cnc3c(NCCC(F)(F)F)cc(Oc4ccc(Cl)cc4)cc32)ccc1C(=O)NC1CC1 [Example 18, 4-{6-(4-Chlorophenoxy)-4-[(3,3,3-trifluoropropyl)amino]-1H-benzimidazol-1-yl}-N-cyclopropyl-2-methylbenzamide]	2.4
Cc1cc(-n2cnc3c(NCCC(F)(F)F)cc(-c4ccccc4CO)cc32)ccc1C(=O)NC1CC1 [Example 21, N-cyclopropyl-4-{6-[2-(hydroxymethyl)phenyl]-4-[(3,3,3-trifluoropropyl)amino]-1H-benzimidazol-1-yl}-2-methylbenzamide]	1.8
Cc1cc(-n2cnc3c(NCC4CCOCC4)cc(Oc4ccc(Cl)c(F)c4)cc32)ccc1C(=O)NC1CC1 [Example 22, 4-{6-(4-Chloro-3-fluorophenoxy)-4-[(tetrahydro-2H-pyran-4-ylmethyl)amino]-1H-benzimidazol-1-yl}-N-cyclopropyl-2-methylbenzamide]	2.7
CC(C)CNc1cc(-c2ccc(F)cc2)cc2c1ncn2-c1ccc(C(=O)NC2CC2)cc1 [Example 7, N-cyclopropyl-4-{6-(4-fluorophenyl)-4-[(2-methylpropyl)amino]-1H-benzimidazol-1-yl}benzamide]	1.9
CCNC(=O)c1ccc(-n2cnc3c(NCCC(F)(F)F)cc(Oc4ccc(OCc5ccccc5)cc4)cc32)cc1C [Example 46, 4-{6-[4-(Benzyloxy)phenoxy]-4-[(3,3,3-trifluoropropyl)amino]-1H-benzimidazol-1-yl}-N-ethyl-2-methylbenzamide]	100
CCNC(=O)c1ccc(-n2cnc3c(NCCC(F)(F)F)cc(Oc4cccc(OC)c4)cc32)cc1C [Example 69, N-ethyl-4-{6-(3-methoxyphenoxy)-4-[(3,3,3-trifluoropropyl)amino]-1H-benzimidazol-1-yl}-2-methylbenzamide]	25.9
CNC(=O)c1ccc(-n2cnc3c(NCCC(F)(F)F)cc(Oc4ccc(O)cc4)cc32)cc1C [Example 48, 4-{6-(4-Hydroxyphenoxy)-4-[(3,3,3-trifluoropropyl)amino]-1H-benzimidazol-1-yl}-N,2-dimethylbenzamide]	5.6
Cc1cc(-n2cnc3c(NCCC(F)(F)F)cc(Oc4ccc(F)c(C(F)(F)F)c4)cc32)ccc1C(=O)NC1CC1 [Example 76, N-cyclopropyl-4-{6-[4-fluoro-3-(trifluoromethyl)phenoxy]-4-[(3,3,3-trifluoropropyl)amino]-1H-benzimidazol-1-yl}-2-methylbenzamide]	7.2
Cc1cc(-n2cnc3c(NCCC(F)(F)F)cc(Nc4cccc(F)c4F)cc32)ccc1C(=O)NC1CC1 [Example 5, N-cyclopropyl-4-{6-[(2,3-difluorophenyl)amino]-4-[(3,3,3-trifluoropropyl)amino]-1H-benzimidazol-1-yl}-2-methylbenzamide]	2.3
Cc1cc(-n2cnc3c(NCCC(F)(F)F)cc(Oc4cccc(C#N)c4)cc32)ccc1C(=O)NC1CC1 [Example 77, 4-{6-(3-cyanophenoxy)-4-[(3,3,3-trifluoropropyl)amino]-1H-benzimidazol-1-yl}-N-cyclopropyl-2-methylbenzamide]	1
COc1ccc(Oc2cc(NCC3CCOCC3)c3ncn(-c4ccc(C(=O)NC5CC5)c(C)c4)c3c2)cc1SC [Example 114B, N-cyclopropyl-4-{6-[4-methoxy-3-(methylsulfanyl)phenoxy]-4-[(tetrahydro-2H-pyran-4-ylmethyl)amino]-1H-benzimidazol-1-yl}-2-methylbenzamide]	6.7
CNC(=O)c1ccc(-n2cnc3c(NCCC(F)(F)F)cc(Oc4ccc(OC)c(F)c4)cc32)cc1C [Example 35, 4-{6-(3-Fluoro-4-methoxyphenoxy)-4-[(3,3,3-trifluoropropyl)amino]-1H-benzimidazol-1-yl}-N,2-dimethylbenzamide]	3.9
Cc1cc(-n2cnc3c(NCCC(F)(F)F)cc(Oc4ccc(OC(F)F)cc4)cc32)ccc1C(=O)NC1CC1 [Example 61, N-cyclopropyl-4-{6-[4-(difluoromethoxy)phenoxy]-4-[(3,3,3-trifluoropropyl)amino]-1H-benzimidazol-1-yl}-2-methylbenzamide]	1.3
Cc1cc(-n2cnc3c(NCCC(F)(F)F)cc(Oc4ccc(-c5ncco5)cc4)cc32)ccc1C(=O)NC1CC1 [Example 75, N-cyclopropyl-2-methyl-4-{6-[4-(1,3-oxazol-2-yl)phenoxy]-4-[(3,3,3-trifluoropropyl)amino]-1H-benzimidazol-1-yl}benzamide]	21.9
COc1ccc(C(C)(O)c2cc(NCCC(F)(F)F)c3ncn(-c4ccc(C(=O)NC5CC5)c(C)c4)c3c2)cc1F (racemic) [Example 103A, N-cyclopropyl-4-{6-[(1RS)-1-(3-fluoro-4-methoxyphenyl)-1-hydroxyethyl]-4-[(3,3,3-trifluoropropyl)amino]-1H-benzimidazol-1-yl}-2-methylbenzamide]	2.7
Cc1cc(-n2cnc3c(NCCC(F)(F)F)cc(Oc4cccc(OC(F)(F)F)c4)cc32)ccc1C(=O)NC1CC1 [Example 59, N-cyclopropyl-2-methyl-4-{6-[3-(trifluoromethoxy)phenoxy]-4-[(3,3,3-trifluoropropyl)amino]-1H-benzimidazol-1-yl}benzamide]	11.9
Cc1cc(-n2cnc3c(NCCC(F)(F)F)cc(Oc4cccc(OC(F)F)c4)cc32)ccc1C(=O)NC1CC1 [Example 62, N-cyclopropyl-4-{6-[3-(difluoromethoxy)phenoxy]-4-[(3,3,3-trifluoropropyl)amino]-1H-benzimidazol-1-yl}-2-methylbenzamide]	3.2
CNC(=O)c1ccc(-n2cnc3c(NCC4CCOCC4)cc(Oc4ccc(OC)cc4SC)cc32)cc1C [Example 115B, 4-{6-[4-methoxy-2-(methylsulfanyl)phenoxy]-4-[(tetrahydro-2H-pyran-4-ylmethyl)amino]-1H-benzimidazol-1-yl}-N,2-dimethylbenzamide]	28.9
CCNC(=O)c1ccc(-n2cnc3c(NCCC(F)(F)F)cc(Oc4cccc(F)c4F)cc32)cc1C [Example 66, 4-{6-(2,3-difluorophenoxy)-4-[(3,3,3-trifluoropropyl)amino]-1H-benzimidazol-1-yl}-N-ethyl-2-methylbenzamide]	2.1
CCNC(=O)c1ccc(-n2cnc3c(NCCC(F)(F)F)cc(Oc4ccc(O)c(F)c4)cc32)cc1C [Example 100, N-ethyl-4-{6-(3-fluoro-4-hydroxyphenoxy)-4-[(3,3,3-trifluoropropyl)amino]-1H-benzimidazol-1-yl}-2-methylbenzamide]	3.4
CCNC(=O)c1ccc(-n2cnc3c(NCCC(F)(F)F)cc(Oc4cccc(F)c4OC)cc32)cc1C [Example 71, N-ethyl-4-{6-(3-fluoro-2-methoxyphenoxy)-4-[(3,3,3-trifluoropropyl)amino]-1H-benzimidazol-1-yl}-2-methylbenzamide]	28.5
Cc1cc(-n2cnc3c(NCCC(F)(F)F)cc(C(=O)c4ccc(O)c(F)c4)cc32)ccc1C(=O)NC1CC1 [Example 108, N-cyclopropyl-4-{6-(3-fluoro-4-hydroxybenzoyl)-4-[(3,3,3-trifluoropropyl)amino]-1H-benzimidazol-1-yl}-2-methylbenzamide]	17
Cc1cc(-n2cnc3c(NCCC(F)(F)F)cc(Oc4cccc(O)c4)cc32)ccc1C(=O)NC1CC1 [Example 111, N-cyclopropyl-4-{6-(3-hydroxyphenoxy)-4-[(3,3,3-trifluoropropyl)amino]-1H-benzimidazol-1-yl}-2-methylbenzamide]	0.6
CCNC(=O)c1ccc(-n2cnc3c(NCCC(F)(F)F)cc(Oc4ccc(O)cc4)cc32)cc1C [Example 49, N-ethyl-4-{6-(4-hydroxyphenoxy)-4-[(3,3,3-trifluoropropyl)amino]-1H-benzimidazol-1-yl}-2-methylbenzamide]	5.5
Cc1ccc(F)cc1Nc1cc(NCCC(F)(F)F)c2ncn(-c3ccc(C(=O)NC4CC4)c(C)c3)c2c1 [Example 3, N-Cyclopropyl-4-{6-[(5-fluoro-2-methylphenyl)amino]-4-[(3,3,3-trifluoropropyl)amino]-1H-benzimidazol-1-yl}-2-methylbenzamide]	1.5
Cc1cc(-n2cnc3c(NCC4CCOCC4)cc(Oc4cccc(F)c4)cc32)ccc1C(=O)NC1CC1 [Example 9, N-cyclopropyl-4-{6-(3-fluorophenoxy)-4-[(tetrahydro-2H-pyran-4-ylmethyl)amino]-1H-benzimidazol-1-yl}-2-methylbenzamide]	0.4

Source: US9388140B2, “Substituted benzimidazoles” (priority 2011, dated 2016)
